# Measurements as given in ChEMBL document CHEMBL1949630, “Discovery of benzodihydroisofurans as novel, potent, bioavailable and brain-penetrant prolylcarboxypeptidase inhibitors” (Bioorg Med Chem Lett, 2012).
# Legend:
# [1] = system: Mus musculus; experiment: Dose normalized AUC in C57BL/6 mouse at 1 mg/kg by LC/MS/MS analysis; format: ADME, organism-based; parameters: dose 1 mg/kg; conditions: in vivo
# [2] = Oral bioavailability in C57BL/6 mouse at 1 mg/kg by LC/MS/MS analysis; format: ADME, organism-based; conditions: in vivo
# [3] = biological target: T1, Lysosomal Pro-X carboxypeptidase (Mus musculus, UniProt Q7TMR0); experiment: Inhibition of mouse PrCP
# T1 sequence (Q7TMR0 whole entry): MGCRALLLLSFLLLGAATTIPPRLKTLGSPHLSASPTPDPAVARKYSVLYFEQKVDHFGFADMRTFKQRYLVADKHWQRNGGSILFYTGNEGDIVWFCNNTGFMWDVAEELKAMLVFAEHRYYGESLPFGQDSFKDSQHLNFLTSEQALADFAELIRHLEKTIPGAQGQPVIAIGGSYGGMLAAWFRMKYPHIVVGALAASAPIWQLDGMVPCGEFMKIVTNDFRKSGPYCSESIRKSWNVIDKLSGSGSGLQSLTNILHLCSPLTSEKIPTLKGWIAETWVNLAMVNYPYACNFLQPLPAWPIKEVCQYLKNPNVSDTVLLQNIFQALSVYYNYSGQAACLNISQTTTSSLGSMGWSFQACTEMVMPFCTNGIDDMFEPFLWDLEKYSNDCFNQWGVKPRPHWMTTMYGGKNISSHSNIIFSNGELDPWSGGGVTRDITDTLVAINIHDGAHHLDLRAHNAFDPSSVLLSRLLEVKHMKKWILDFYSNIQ
# [4] = Clearance in C57BL/6 mouse at 0.5 mg/kg, iv and 1 mg/kg, po by LC/MS/MS analysis; format: ADME, organism-based; conditions: in vivo
# [5] = Half life in C57BL/6 mouse at 0.5 mg/kg, iv and 1 mg/kg, po by LC/MS/MS analysis; format: ADME, organism-based; conditions: in vivo
# [6] = Volume of distribution at steady state in C57BL/6 mouse at 0.5 mg/kg, iv and 1 mg/kg, po by LC/MS/MS analysis; format: ADME, organism-based; conditions: in vivo, read-out: Vdss
# [7] = biological target: T1, Lysosomal Pro-X carboxypeptidase; experiment: Inhibition of PrCP in mouse plasma assessed as angiotensin 3 cleavage by whole serum shift assay
# [8] = Clearance in C57BL/6 mouse at 1 mg/kg, iv and 2 mg/kg, po by LC/MS/MS analysis; format: ADME, organism-based; conditions: in vivo
# [9] = Volume of distribution at steady state in C57BL/6 mouse at 1 mg/kg, iv and 2 mg/kg, po by LC/MS/MS analysis; format: ADME, organism-based; conditions: in vivo, read-out: Vdss
# [10] = Half life in C57BL/6 mouse at 1 mg/kg, iv and 2 mg/kg, po by LC/MS/MS analysis; format: ADME, organism-based; conditions: in vivo
# [11] = Oral bioavailability in C57BL/6 mouse at 2 mg/kg by LC/MS/MS analysis; format: ADME, organism-based; conditions: in vivo
# [12] = system: Mus musculus; experiment: Dose normalized AUC in C57BL/6 mouse at 2 mg/kg by LC/MS/MS analysis; format: ADME, organism-based; parameters: dose 2 mg/kg; conditions: in vivo
# [13] = Fraction unbound in mouse plasma; format: ADME, cell-free
# [14] = Fraction unbound in human plasma; format: ADME, cell-free
Compound,AUC/dose [1] [µM·kg·h/mg],bioavailability [2] [%],IC50 [3] [nM],clearance [4] [mL/min/kg],half-life [5] [h],Vd [6] [L/kg],IC50 [7] [nM],clearance [8] [mL/min/kg],Vd [9] [L/kg],half-life [10] [h],bioavailability [11] [%],AUC/dose [12] [µM·kg·h/mg],fraction unbound [13],fraction unbound [14]
CC(c1ccc(F)cn1)N1CCC2(CC1)OC(c1cc(Cl)cc(Cl)c1)c1ccccc12 (racemic),0.27,22,0.31,31,5.9,14,90,,,,,,,
CC(C)(O)C(c1ccccc1)N1CCC2(CC1)OC(c1cc(Cl)cc(Cl)c1)c1cccnc12 (racemic),0.11,16,5.2,38,3.4,7.3,,,,,,,,
CC(C)(c1ccc(OC(F)(F)F)cc1)N1CCC2(CC1)OC(c1cc(Cl)ccn1)c1cccnc12 (racemic),0.41,41,0.39,,> 8,,351,,,,,,,
FC(F)(F)Oc1ccc(CN2CCC3(CC2)OC(c2cc(Cl)cc(Cl)c2)c2cnccc23)cc1 (racemic),,,5.2,,,,427,,,,,,,
FC(F)(F)Oc1ccc(CN2CCC3(CC2)OC(c2cc(Cl)cc(Cl)c2)c2ccccc23)cc1 (centres undefined),,,1,,,,> 1000,8.1,4.4,7,53,2.16,,
FC(F)(F)Oc1ccc(CN2CCC3(CC2)OC(c2cc(Cl)cc(Cl)c2)c2cccnc23)cc1 (centres undefined),0.26,22,1.4,28,4,8.2,,,,,,,,
FC(F)(F)Oc1ccc(CN2CCC3(CC2)OC(c2ccccn2)c2ccccc23)cc1 (racemic),0.14,25,20,70,5,26,,,,,,,,
O=S(=O)(c1ccc(C(F)(F)F)cn1)N1CCC2(CC1)OC(c1cc(Cl)cc[n+]1[O-])c1ccccc12 (racemic),0.1,23,0.11,87,2.1,12,,,,,,,0.025,0.05
O=S(=O)(c1ccc(OC(F)(F)F)cc1)N1CCC2(CC1)OC(c1cc(Cl)cc(Cl)c1)c1cccnc12 (racemic),0.33,36,1.8,33,4.8,9.5,712,,,,,,< 0.0006,< 0.0006
FC(F)(F)Oc1ccc(CN2CCC3(CC2)OC(c2cc(Cl)ccn2)c2cccnc23)cc1 (racemic),,,5.8,,,,,74,28,5,47,0.23,,
"[O-][n+]1ccc(Cl)cc1C1OC2(CCN(Cc3ccc(OC(F)(F)F)cc3)CC2)c2ccccc21 (single isomer, unassigned)",,,0.38,,,,,57,27,5.6,72,0.43,0.007,0.006
FC(F)(F)Oc1ccc(CN2CCC3(CC2)OC(c2ccc(Cl)cn2)c2ccccc23)cc1 (racemic),0.46,35,25,30,6.5,14,,,,,,,,
OCC(c1ccccc1)N1CCC2(CC1)OC(c1cc(Cl)cc(Cl)c1)c1cccnc12 (racemic),0.05,17,110,126,2.3,20,,,,,,,,
Clc1cc(Cl)cc(C2OC3(CCN(Cc4cc5ccccc5o4)CC3)c3ccccc32)c1 (racemic),,,2.5,,,,> 1000,,,,,,,
FC(F)(F)Oc1ccc(CN2CCC3(CC2)OC(c2cc(Cl)cc(Cl)c2)c2ccncc23)cc1 (racemic),0.28,29,1.3,35,6.1,15,380,,,,,,,
FC(F)(F)c1ccc(CN2CCC3(CC2)OC(c2cc(Cl)cc(Cl)c2)c2ccccc23)nc1 (racemic),0.11,16,0.71,51,4.1,11,144,,,,,,,
Clc1cc(Cl)cc(C2OC3(CCN(Cc4ccc(N5CCCC5)cn4)CC3)c3ccccc32)c1 (racemic),1.22,23,17,7.6,8.5,4.7,,,,,,,,
CC(c1ccc(F)cn1)N1CCC2(CC1)OC(c1cc(Cl)cc(Cl)c1)c1cccnc12 (centres undefined),0.028,5.4,1.1,69,4,19,14,,,,,,,
Fc1ccc(CN2CCC3(CC2)OC(c2cc(Cl)cc(Cl)c2)c2ccccc23)nc1 (centres undefined),1.36,22,2.5,28,7,16,,,,,,,,
CC(c1ccc(F)cn1)N1CCC2(CC1)OC(c1cc(Cl)ccn1)c1ccccc12 (racemic),0.032,7.8,,96,1.7,13,,,,,,,,
CC(c1ccc(F)cn1)N1CCC2(CC1)OC(c1cc(Cl)ccn1)c1cccnc12 (racemic),0.008,2.6,10.6,127,2.1,17,19,,,,,,,
